Measured values from PubChem BioAssay (NCI).
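Five compound concentrations were applied to cells in 96-well plates for 48 hours; endpoints were derived by simple linear interpolation of the resulting dose-response curve. GI50 is the concentration that inhibits growth by half. TGI: concentration producing complete growth inhibition.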

Assays:
Assay in all cases: inhibition of tumour cell growth, NCI panel, 48 h
[1] = test system: LOX IMVI melanoma
[2] = test system: UACC-62 melanoma
[3] = test system: CCRF-CEM leukemia
[4] = test system: TK-10 renal
[5] = test system: ACHN renal
[6] = test system: NCI-H460 lung
[7] = test system: SK-OV-3 ovarian
[8] = test system: HL-60(TB) leukemia
[9] = test system: OVCAR-5 ovarian
[10] = test system: RXF 393 renal
[11] = test system: HCT-116 colon
[12] = test system: MDA-MB-435
[13] = test system: HCC-2998 colon
[14] = test system: HS 578T breast
[15] = test system: PC-3 prostate
[16] = test system: OVCAR-8 ovarian
[17] = test system: SK-MEL-28 melanoma
[18] = test system: MDA-MB-231 breast
[19] = test system: UACC-257 melanoma
[20] = test system: NCI-H522 lung
[21] = test system: SF-295 CNS
[22] = test system: K-562 leukemia
[23] = test system: NCI-H226 lung
[24] = test system: OVCAR-4 ovarian
[25] = test system: RPMI-8226 leukemia
[26] = test system: U251 CNS
[27] = test system: OVCAR-3 ovarian
[28] = test system: MALME-3M melanoma
[29] = test system: T-47D breast
[30] = test system: M14 melanoma
[31] = test system: SN12C renal
[32] = test system: EKVX NSCLC
[33] = test system: MOLT-4 leukemia
[34] = test system: SF-539 CNS
[35] = test system: MCF7 breast
[36] = test system: UO-31 renal
[37] = test system: SF-268 CNS
[38] = test system: KM12 colon
[39] = test system: A549 NSCLC
[40] = test system: SK-MEL-5 melanoma
[41] = test system: 786-0 renal
[42] = test system: COLO 205 colon
[43] = test system: SW-620 colon
[44] = test system: A498 renal
[45] = test system: BT-549 breast
[46] = test system: SNB-19 CNS
[47] = test system: SR leukemia
[48] = test system: HT29 colon
[49] = test system: SK-MEL-2 melanoma
[50] = test system: SNB-75 CNS
[51] = test system: HOP-92 NSCLC
[52] = test system: CAKI-1 renal
[53] = test system: IGROV1 ovarian
[54] = test system: HOP-62 NSCLC
[55] = test system: HCT-15 colon
[56] = test system: DU-145 prostate
[57] = test system: NCI/ADR-RES ovarian
[58] = test system: NCI-H23 lung
[59] = test system: MDA-MB-468 breast

NS(=O)(=O)c1ccc(N2N=C(c3ccc(NC(=O)Nc4ccccc4)cc3)CC2c2ccc(Br)cc2)cc1 (configuration not stated)
GI50 [1]: 1.73 µM | TGI [1]: 3.12 µM | GI50 [2]: 1.64 µM | TGI [2]: 3.23 µM | GI50 [3]: 2.34 µM | TGI [3]: 5.95 µM | GI50 [4]: 3.13 µM | TGI [4]: 12.4 µM | GI50 [5]: 2.88 µM | TGI [5]: 8.93 µM | GI50 [6]: 1.92 µM | TGI [6]: 4.25 µM | GI50 [7]: 3.48 µM | TGI [7]: 14.2 µM | GI50 [8]: 2.12 µM | TGI [8]: 5.59 µM | GI50 [9]: 2.14 µM | TGI [9]: 5.4 µM | GI50 [10]: 1.82 µM | TGI [10]: 4.96 µM | GI50 [11]: 1.75 µM | TGI [11]: 3.56 µM | GI50 [12]: 2.02 µM | TGI [12]: 7.47 µM | GI50 [13]: 1.6 µM | TGI [13]: 3.06 µM | GI50 [14]: 2.52 µM | TGI [14]: 7.86 µM | GI50 [15]: 2.73 µM | TGI [15]: 9.76 µM | GI50 [16]: 3.55 µM | TGI [16]: 16.1 µM | GI50 [17]: 2.66 µM | TGI [17]: 7.26 µM | GI50 [18]: 1.93 µM | TGI [18]: 4.03 µM | GI50 [19]: 5.32 µM | TGI [19]: 20.4 µM | GI50 [20]: 2.67 µM | TGI [20]: 8.23 µM | GI50 [21]: 3.18 µM | TGI [21]: 12.7 µM | GI50 [22]: 3.16 µM | TGI [22]: > 100 µM | GI50 [23]: 2.34 µM | TGI [23]: 6.76 µM | GI50 [24]: 2.55 µM | TGI [24]: 10.5 µM | GI50 [25]: 2.11 µM | TGI [25]: 5.26 µM | GI50 [26]: 2.72 µM | TGI [26]: 8.65 µM | GI50 [27]: 1.86 µM | TGI [27]: 4.34 µM | GI50 [28]: 2.15 µM | TGI [28]: 5.76 µM | GI50 [29]: 2.87 µM | TGI [29]: 11.6 µM | GI50 [30]: 2.11 µM | TGI [30]: 4.5 µM | GI50 [31]: 1.68 µM | TGI [31]: 3.15 µM | GI50 [32]: 3.19 µM | TGI [32]: 13.6 µM | GI50 [33]: 2.66 µM | TGI [33]: 11.4 µM | GI50 [34]: 2.06 µM | TGI [34]: 4.63 µM | GI50 [35]: 2.6 µM | TGI [35]: 10.2 µM | GI50 [36]: 2.57 µM | TGI [36]: 10.7 µM | GI50 [37]: 2.63 µM | TGI [37]: 11.2 µM | GI50 [38]: 2.62 µM | TGI [38]: 6.92 µM | GI50 [39]: 3.08 µM | TGI [39]: 11.3 µM | GI50 [40]: 1.77 µM | TGI [40]: 3.39 µM | GI50 [41]: 2.95 µM | TGI [41]: 10.1 µM | GI50 [42]: 1.79 µM | TGI [42]: 3.39 µM | GI50 [43]: 2.5 µM | GI50 [44]: 1.98 µM | TGI [44]: 4.99 µM | GI50 [45]: 2.03 µM | TGI [45]: 4.22 µM | GI50 [46]: 4.11 µM | TGI [46]: 15.7 µM | GI50 [47]: 2.71 µM | TGI [47]: 9.08 µM | GI50 [48]: 1.92 µM | TGI [48]: 4.53 µM | GI50 [49]: 5.38 µM | TGI [49]: 19.9 µM | GI50 [50]: 1.76 µM | TGI [50]: 11.7 µM | GI50 [51]: 1.98 µM | TGI [51]: 5.24 µM | GI50 [52]: 2.64 µM | TGI [52]: 8.44 µM | GI50 [53]: 2.86 µM | TGI [53]: 10.6 µM | GI50 [54]: 2.01 µM | TGI [54]: 4.78 µM | GI50 [55]: 2.58 µM | TGI [55]: 10.1 µM | GI50 [56]: 2.87 µM | TGI [56]: 8.67 µM | GI50 [57]: 1.91 µM | TGI [57]: 4 µM | GI50 [58]: 1.85 µM | TGI [58]: 3.73 µM | GI50 [59]: 2.01 µM | TGI [59]: 5.38 µM
